Laboratory results: patent publication EP0173944A2, “Enhanced inhibition of yeast cell growth” (MILES INC., priority 1984, dated 1986)
Read-outs that look alike come from different tables or passages of the source. *1 amine or outer side, *2 acyl side, *3 side chain or, on linkers, in order; H or OH if unused. Where a SMILES comes first, the peptide text is derived from it. Bridges are numbered along the chain shown (N, C = ends). Roman numbers before positions name the chains, in order. [ ]: non-standard residue; d: D form. Actinocin(9to1) = Cc1c2oc3c(C)ccc(C(=O)[*:1])c3nc-2c(C(=O)[*:2])c(N)c1=O; NMeV = CN[C@H](C(=O)O)C(C)C; Sar = CNCC(=O)O

Assays:
[1] = tested on: Saccharomyces cerevisiae strain S288C; assay: Filter disc zone-of-inhibition test of yeast growth with or without PBN in the agar overlay; type: cell-based; settings: for effect on yeast growth, control sample / Area of Zone of Inhibition, Control: no PBN; for effect on yeast growth, control sample / effect on yeast growth, PBN-containing sample: kanamycin 5.0, streptomycin 2.5, chloramphenicol 0.25 mg/disc, data not shown in Table 1; for effect on yeast growth, PBN-containing sample: with PBN; for inhibition of yeast growth in relation to the carbon source: glycerol or glucose as the carbon source; for Area of Zone of Inhibition, Control / Area of Zone of Inhibition, PBN (4.8 A260 units): 30°C, 48 hours; for Area of Zone of Inhibition, PBN (4.8 A260 units): with PBN 4.8 A260 units; for Area of Zone of Inhibition: rifampicin 2.5 mg/disc
Protocol: (§1) A convenient method for ascertaining the inhibition of growth of yeast cells is as follows. A sample of yeast cells (about 10 7 cells) from a viable overnight culture is added to a molten agar-containing growth medium to which has been added the desired amount of PBN. The resulting suspension is mixed rapidly and then poured onto an agar plate containing a suitable growth medium. The molten agar is allowed to solidify and sterile filter discs are placed on the surface. The solution of antibiotics to be tested are then pipetted onto the discs (50 microliters per disc). The plates are incubated and "read" for antibiotic sensitivity as determined by the zone of inhibition around the disc.
(§2) Saccharomyces cerevisiae strain S288C was grown for 16 hours at 30°C in a liquid medium consisting of 1% (w/v) yeast extract, 2% (w/v) peptone, and 2% (w/v) glucose (YPD medium). One drop of cell suspension from this culture (about 5 x 10^6 to about 1 X 10 ^7 cells) was added to each of 2 tubes containing 3 ml of 0.7% agar, 1% yeast extract, 2% peptone, 2% glycerol (or alternatively 2% glucose as a carbon source) and 0.25 ml of 5 M NaCl maintained at 45-50°C to prevent the agar from solidifying. One tube contained., in addition to the above, 0.5 ml of PBN solution (4.8 A260 units) prepared as described above. The other tube served as a control. The tube contents were mixed rapidly and poured onto a Petri plate containing 25 ml of 2% agar, 1% yeast extract, 2% peptone, and 2% glycerol (YPG medium). After the agar had solidified, sterile filter disks (0.5 inch diameter) were placed on the surface of the agar and solutions of various antibiotics to be tested were pipetted onto the disks. The plates were incubated at 30°C for 48 hours and the inhibition of growth was determined by measuring the area of a zone of clearing formed around the discs (minus the area of the disc).
The procedure described in Example I was repeated with Saccharomyces cerevisiae strain S288C except that increasing amounts of PBN were used. The rifampicin concentration on the discs was maintained at 2.5 mg/disc throughout.

[2] = tested on: Candida albicans (ATCC 10231); assay: as above; type: cell-based
Protocol: as §1, §2
The procedure described in Example I was repeated with Candida albicans (ATCC 10231). Inhibition of growth of this organism by G-418, rifampicin, cycloheximide and actinomycin D in the presence and absence (control) of PBN was determined.

[3] = YPD medium used for plating, 0.5 mg/disk in dimethylsulfoxide
[4] = no PBN, G-418 5.0, rifampicin 2.5, cycloheximide 0.5, actinomycin D 0.5 mg/disk
[5] = with PBN 3.0 A260 units per plate in YPD medium, G-418 5.0, rifampicin 2.5, cycloheximide 0.5, actinomycin D 0.5 mg/disk
[6] = YPG medium, erythromycin 0.5, G-418 5.0, rifampicin 2.5 mg/disk

Structure (SMILES) | effect on yeast growth, control sample [1] | effect on yeast growth, PBN-containing sample [1] | inhibition of yeast growth in relation to the carbon source [1] | Area of Zone of Inhibition, Control [2, 4] [mm^2] | Area of Zone of Inhibition, PBN [2, 5] [mm^2] | Area of Zone of Inhibition, Control [1, 6] [mm^2] | Area of Zone of Inhibition, PBN (4.8 A260 units) [1, 6] [mm^2] | other results
[H]/N=C(/N)N[C@H]1[C@H](O)[C@@H](O)[C@H](O[C@@H]2O[C@@H](C)[C@](O)(C=O)[C@H]2O[C@@H]2O[C@@H](CO)[C@H](O)[C@@H](O)[C@@H]2NC)[C@@H](N/C(N)=N\[H])[C@@H]1O [streptomycin] | no effect | no effect |  |  |  |  |  | 
Cc1c2oc3c(C)ccc(C(=O)N[C@@H]4C(=O)N[C@H](C(C)C)C(=O)N5CCC[C@H]5C(=O)N(C)CC(=O)N(C)[C@@H](C(C)C)C(=O)O[C@@H]4C)c3nc-2c(C(=O)N[C@@H]2C(=O)N[C@H](C(C)C)C(=O)N3CCC[C@H]3C(=O)N(C)CC(=O)N(C)[C@@H](C(C)C)C(=O)O[C@@H]2C)c(N)c1=O [Actinomycin D] (I: T[dV]P[Sar][NMeV] / II: T[dV]P[Sar][NMeV]; ester I:1-I:C, II:1-II:C; linker I:N-II:N via Actinocin(9to1)) |  |  | exhibited inhibition of yeast growth regardless of the carbon source | <3 | 452 |  |  | Area of Zone of Inhibition, Control [1, 3]: <3 mm^2; Area of Zone of Inhibition, PBN (4.8 A260 units) [1, 3]: 314 mm^2
NC[C@H]1O[C@H](O[C@H]2[C@H](O)[C@@H](O[C@H]3O[C@H](CO)[C@@H](O)[C@H](N)[C@H]3O)[C@H](N)C[C@@H]2N)[C@H](O)[C@@H](O)[C@@H]1O [kanamycin] | no effect | no effect |  |  |  |  |  | 
C[C@@H]1C[C@@H]([C@H](O)CC2CC(=O)NC(=O)C2)C(=O)[C@@H](C)C1 [Cycloheximide] |  |  |  |  |  |  |  | Area of Zone of Inhibition, Control [2]: <3 mm^2; Area of Zone of Inhibition, PBN [2]: 64 mm^2
CC[C@H]1OC(=O)[C@H](C)[C@@H](O[C@H]2C[C@@](C)(OC)[C@@H](O)[C@H](C)O2)[C@H](C)[C@@H](O[C@@H]2O[C@H](C)C[C@H](N(C)C)[C@H]2O)[C@](C)(O)C[C@@H](C)C(=O)[C@H](C)[C@@H](O)[C@]1(C)O [Erythromycin] |  |  | effective in this test system only when glycerol (rather than glucose) is used as the carbon source |  |  | 80 | 227 | 
O=C(N[C@H](CO)[C@H](O)c1ccc([N+](=O)[O-])cc1)C(Cl)Cl [chloramphenicol] | no effect | no effect |  |  |  |  |  | 
CN[C@@H]1[C@@H](O)[C@@H](O[C@@H]2[C@@H](O)[C@H](O[C@H]3O[C@H]([C@@H](C)O)[C@@H](O)[C@H](O)[C@H]3N)[C@@H](N)C[C@H]2N)OC[C@]1(C)O [G-418] |  |  | exhibited inhibition of yeast growth regardless of the carbon source | 20 | 346 | 113 | 490 | 
CO[C@H]1/C=C/O[C@@]2(C)Oc3c(C)c(O)c4c(O)c(c(/C=N/N5CCN(C)CC5)c(O)c4c3C2=O)NC(=O)/C(C)=C\C=C\[C@H](C)[C@H](O)[C@@H](C)[C@@H](O)[C@@H](C)[C@H](OC(C)=O)[C@@H]1C [Rifampicin] |  |  |  | <3 | 3 | <3 | 95 | Area of Zone of Inhibition ([1]; PBN 0.0 A260 units): 0 mm^2; Area of Zone of Inhibition ([1]; PBN 1.0 A260 units): 3.0 mm^2; Area of Zone of Inhibition ([1]; PBN 2.0 A260 units): 20.0 mm^2; Area of Zone of Inhibition ([1]; PBN 3.0 A260 units): 38.5 mm^2; Area of Zone of Inhibition ([1]; PBN 4.0 A260 units): 38.5 mm^2; Area of Zone of Inhibition ([1]; PBN 5.0 A260 units): 50.0 mm^2; Area of Zone of Inhibition ([1]; PBN 6.0 A260 units): 64.0 mm^2; Area of Zone of Inhibition ([1]; PBN 7.0 A260 units): 78.5 mm^2; Area of Zone of Inhibition ([1]; PBN 8.0 A260 units): 71.0 mm^2; Area of Zone of Inhibition ([1]; PBN 9.0 A260 units): 78.5 mm^2; Area of Zone of Inhibition ([1]; PBN 10.0 A260 units): 95.0 mm^2
